According to US20240293420A1, “PHARMACEUTICAL COMPOSITION, PREPARATION, AND PREPARATION METHOD THEREFOR AND USE THEREOF” (WUHAN LL SCIENCE AND TECHNOLOGY DEVELOPMENT CO., LTD., priority 2021, published 2024):
“Also recorded” adds a separate entry of the source.

Assays:
[1] = phase II clinical trial; cited from earlier work
[2] = Physical and chemical stability of crystal forms at 60° C. (closed) and 40° C./75% RH (open); type: physicochemical
Experimental: The physical and chemical stability of crystal forms I, III, and V at 60° C. (closed) and 40° C./75% RH (open) for 7 days were investigated respectively.
(closed) and 40° C./75% RH (open) for 3 months were investigated.

[3] = Pharmacokinetic experiments in Beagles; type: in vivo; conditions: Beagle, male, PO, 10 mg/kg, plasma
Experimental: The present disclosure preferred crystal forms I, III, and V of the compound in the above examples for pharmacokinetic experiments in Beagles, and the relevant experiments are as follows:
Animal: 9 Beagles, male, divided into three groups with 3 in each group, weight ranging from 10 to 13 kg (source & certificate number: Beijing Marshall Biotechnology Co., Ltd., No. 1103182011000161)
Administration mode and dosage: PO: 10 mg/kg
Preparation: 0.5% CMC-Na was used as the solvent, and 400 mg of each of the three different crystal forms of compound A were weighed and added to the corresponding 79 mL of solvent, respectively. The mixture was subjected to ultrasonication for 20 minutes, added with a stirrer, and mixed thoroughly for 3 hours (the storage period from compound preparation to animal administration at room temperature was less than 6 hours). After the drug solution became a homogeneous and fine suspension, which was observed by the naked eye, the solvent was gradually added until the specified volume reached the target concentration. The preparation was stirred for 10 minutes at room temperature before administration, and stirred continuously during administration.
Time points for sampling: the time points for blood sampling in the PO group were 0.167, 0.5, 1, 2, 4, 6, 8, and 24 hours.
Animals in the PO group were fasted overnight except for free access to water before administration, and resumed food supply 4 hours after administration.
After Beagles in the […] were administered, blood was collected from Beagles by jugular vein puncture according to the time points for sampling. About 1.0 mL of blood was collected at each time point and transferred to an anticoagulant EP tube (containing 10 μL of EDTA-K2, 375 mg/mL). The tube was gently inverted three times, stored in an ice box (no more than 30 minutes), and centrifuged at 3200 g for 10 minutes at 4° C. The plasma was transferred to an ultra-low temperature refrigerator and stored until detection.
Sample pretreatment process: 40 μL of sample was taken, and 160 μL of acetonitrile solution containing 0.1% FA and 200 ng/mL of mixed standard solution was added to precipitate the protein. The mixture was vortexed and mixed well, and the sample was centrifuged in a 4° C. centrifuge at 13000 pm for 10 minutes. 100 μL of the supernatant was transferred to another 96 deep well plate, then 100 μL of methanol:water (1:3, v:v) solution containing 0.1% FA was added thereto, and the mixture was shaken and mixed for 10 minutes.
• Ion source: ion electrospray (ESI) • Ionization mode: positive ion mode (Positive) • Detection mode (mode): multiple reaction monitoring (MRM) • Ion spray voltage: 5500 V • Ion spray temperature (turbo ion spray temp): 550° C. • Curtain gas type: nitrogen setting: 35 • Collision cell gas type (CAD gas type): nitrogen setting: medium • Nebulizing gas type (gas 1): nitrogen setting: 55.00 • Auxiliary gas type (gas 2): nitrogen setting: 55.00
• Chromatographic column: poroshell 120 EC-C18 (4.6×50 mm, 2.7 μm) • Mobile phase A: 0.1% formic acid aqueous solution • Mobile phase B: a solution of 0.1% formic acid in methanol • Auto sampler wash solution (rinse port wash solution): 50% methanol • Column temperature: 40° C. • Flow rate: 0.55 mL/min • Auto sampler temperature (sample tray temp): 10° C. • Injection volume: 3 μL • Lift of presser foot (needle stroke): 49 mm • Auto sampler rinse setting (rinse pump setting): rinse port only • Auto sampler rinse mode (rinse mode): before aspiration • Auto sampler rinse volume for needle (rinse volume): 500 μL • Dip time when rinsing the injection needle (rinse dip time): 2 seconds
The data would be analyzed using WinNonlin (version 5.2.1 Pharsight, Mountain View, CA) through a non-compartmental model to obtain PK parameters (selecting Cmax, Tmax, AUClast, T1/2, and other parameters according to different routes of administration).

[4] = Solubility tests in biological media of SGF, FaSSIF and FeSSIF; type: physicochemical
Experimental: The instrument used for liquid chromatography analysis was Agilent HPLC 1260 series, and the analytical method is shown in the table below.
The results of solubility tests of crystal forms I, III, and V in biological media of SGF, FaSSIF, and FeSSF are as shown in Table E and FIG. 43. There was little difference in the solubility of the above three crystal forms in different biological media, and the solubility in SGF was higher than 5 mg/mL.

[5] = Dynamic vapor sorption (DVS) test; type: physicochemical; conditions: for DVS (wt %, 80% RH) / DVS (wt %, 90% RH): 25° C.
[6] = Crystal form transformation under humidity / drying (XRPD); type: physicochemical; conditions: humidity or drying as stated in the value
Source text: Crystal form I can be obtained by the preparation method in Example 3. […] (FIG. 29). Combined with the DVS test results (FIG. 30), it can be seen that the mutual transformation between crystal forms I and IV is reversible.
Crystal form IV is a hygroscopic product of crystal form I under high humidity environment, and can be obtained by slurrying crystal form I or crystal form V in a mixed solvent of water/acetone with a water content of 50% to 95%.
Crystal form VI was obtained by slurrying crystal form I or crystal form V at 60° C. in a mixed solvent of water/acetone with a water content of 10% (volume ratio) at 60° C.
Crystal form VIII is a hydrate, but the hydrate is unstable.

| Compound | Purity - 7 days (peak area %) ([2]; 40° C./75% RH (open), 7 days) | Purity - 7 days (peak area %) ([2]; 60° C. (closed), 7 days) | Initial purity (peak area %) [2] | AUClast [3] | Cmax [3] | T1/2 [3] | Tmax [3] | XRPD of remaining solid ([4]; FaSSIF, 0.5 h) | pH ([4]; FaSSIF, 0.5 h) | pH ([4]; FaSSIF, 2 h) | pH ([4]; FaSSIF, 24 h) | XRPD of remaining solid ([4]; FeSSIF, 0.5 h) | pH ([4]; FeSSIF, 0.5 h) | pH ([4]; FeSSIF, 2 h) | pH ([4]; FeSSIF, 24 h) | pH ([4]; SGF, 0.5 h) | pH ([4]; SGF, 2 h) | pH ([4]; SGF, 24 h) | DVS (wt %, 80% RH) ([5]; 80% RH) | crystal form transformation [6] | further results |
| --- | --- | --- | --- | --- | --- | --- | --- | --- | --- | --- | --- | --- | --- | --- | --- | --- | --- | --- | --- | --- | --- |
| COc1cc(C(C)C)c(Oc2cnc(N)nc2N)cc1S(N)(=O)=O [AF-219] |  |  |  |  |  |  |  |  |  |  |  |  |  |  |  |  |  |  |  |  | dysgeusia [1]: serious dysgeusia problem; efficacy on refractory cough [1]: good efficacy |
| COC(=O)N1CCO[C@@H](Cc2c(-c3c(F)cc(S(N)(=O)=O)cc3F)nc3cc(Cl)ccn23)C1 [Crystal form I, methyl (S)-2-((7-chloro-2-(2,6-difluoro-4-sulfamoylphenyl)imidazo[1,2-a]pyridin-3-yl)methyl)morpholine-4-carboxylate] | 99.38 peak area % | 99.37 peak area % | 99.38 peak area % | 7926 ± 6235 ng·h/mL | 991 ± 800 ng/mL | 11.9 ± 3.65 h | 2.00 ± 0.00 h | transformed into crystal form IV as a hydrate | 6.4 | 6.4 | 6.4 | transformed into crystal form IV as a hydrate | 5.0 | 5.1 | 5.1 | 1.2 | 1.3 | 1.2 | 6.8 wt % | absorbed moisture under high humidity environment and was transformed into crystal form IV as a hydrate; also recorded: easy to transform into crystal form IV when RH >40% | XRPD ([2]; 40° C./75% RH (open), 7 days): transformed into crystal form IV as a hydrate; XRPD before and after the DVS test [5]: remained unchanged; DVS (wt %, 90% RH) [5]: 6.9 wt %; hygroscopicity (DVS) ([5]; 80% RH): 6.8% |
| COC(=O)N1CCO[C@@H](Cc2c(-c3c(F)cc(S(N)(=O)=O)cc3F)nc3cc(Cl)ccn23)C1 [Crystal form IV, methyl (S)-2-((7-chloro-2-(2,6-difluoro-4-sulfamoylphenyl)imidazo[1,2-a]pyridin-3-yl)methyl)morpholine-4-carboxylate] |  |  |  |  |  |  |  |  |  |  |  |  |  |  |  |  |  |  |  | transformed into crystal form I as an anhydrous crystal form after vacuum drying and dehydration |  |
| COC(=O)N1CCO[C@@H](Cc2c(-c3c(F)cc(S(N)(=O)=O)cc3F)nc3cc(Cl)ccn23)C1 [Crystal form V, methyl (S)-2-((7-chloro-2-(2,6-difluoro-4-sulfamoylphenyl)imidazo[1,2-a]pyridin-3-yl)methyl)morpholine-4-carboxylate] | 99.28 peak area % | 99.30 peak area % | 99.29 peak area % | 2637 ± 1750 ng·h/mL | 170 ± 99.4 ng/mL | 44.4 ± 28.9 h | 4.67 ± 0.67 h | Unchanged | 6.4 | 6.4 | 6.4 | Unchanged | 5.0 | 5.0 | 5.1 | 1.2 | 1.1 | 1.2 | 0.7 wt % |  | XRPD of remaining solid ([4]; FaSSIF, 2 h): Unchanged; XRPD of remaining solid ([4]; FaSSIF, 24 h): Unchanged; XRPD of remaining solid ([4]; FeSSIF, 2 h): Unchanged; XRPD of remaining solid ([4]; FeSSIF, 24 h): Unchanged; solubility at 2 h ([4]; pH 1.1, simulated gastric fluid, thermodynamic from solid, SGF, 2 h, visual observation): > 5000 µg/mL; DVS (wt %, 90% RH) [5]: 0.9 wt % |
| COC(=O)N1CCO[C@@H](Cc2c(-c3c(F)cc(S(N)(=O)=O)cc3F)nc3cc(Cl)ccn23)C1 [Crystal form VI, methyl (S)-2-((7-chloro-2-(2,6-difluoro-4-sulfamoylphenyl)imidazo[1,2-a]pyridin-3-yl)methyl)morpholine-4-carboxylate] |  |  |  |  |  |  |  |  |  |  |  |  |  |  |  |  |  |  |  | transformed into crystal form I after being placed under ambient humidity (35% RH) for a few minutes |  |
| COC(=O)N1CCO[C@@H](Cc2c(-c3c(F)cc(S(N)(=O)=O)cc3F)nc3cc(Cl)ccn23)C1 [Crystal form VIII, methyl (S)-2-((7-chloro-2-(2,6-difluoro-4-sulfamoylphenyl)imidazo[1,2-a]pyridin-3-yl)methyl)morpholine-4-carboxylate] |  |  |  |  |  |  |  |  |  |  |  |  |  |  |  |  |  |  |  | transformed into crystal form I |  |
